Patent US20240050513A1, “COMPOSITION FOR PREVENTING, AMELIORATING, OR TREATING DISEASE CAUSED BY PROTEIN NITRATION […] WITH TERMINAL TYROSINE AS EFFECTIVE COMPONENT” (INDUSTRY-ACADEMIC COOPERATION FOUNDATION GYEONGSANG …, priority 2021, published 2024)

Test system: chronic immobilization stress C57BL/6 mice
Experiment: Cognitive function (ORT/OLT) in chronic immobilization stress model
Assay type: in vivo
Conditions: stress group, peptide-supplemented diet vs normal diet
Method: To analyze the long-term memory capacity of animals following the peptide diet of the present invention, both the object recognition test (ORT) and object location recognition test (OLT) were conducted (FIG. 1). The tests consisted of three phases: habituation, familiarization, and test. During the habituation phase, the animals were acclimated to the testing apparatus for 10 minutes per day over two days. On the third day at the familiarization phase, the animals were allowed to explore two identical objects for 10 minutes. Subsequently, on the fourth day at the test phase, one of the objects was replaced with a novel object, and the animals were allowed to explore for 10 minutes, with result recorded during the initial 5 minutes was used as test data. The object recognition test (ORT) index was calculated using the following formula.
Discrimination index=(N−F)/(N+F) • N: Time spent for exploring new object • F: Time spent for exploring familiar object
After 24 hours of performing the ORT, the location of the familiar object was changed, and the animals were allowed to explore for 5 minutes. During the total exploration time, the ratio of time spent exploring the object with a changed location was calculated to determine the object location recognition test (OLT) index.
A total of 28 seven-week-old male C57BL/6 mice were divided into two groups: a control group and a stress group. […]

How did the cognitive function turn out when tyrosine-glutamine [YQ] was run?
Its cognitive function is “enhanced cognitive function”.
